Key:
Design in all cases: species or system human
[1] = system: UEA-1 binding sites on Caco-2 cell membrane preparations; assay: Competition assay of biotinylated UEA-1 binding, tier (single/two) not given; details: tier not printed, library TPI 1066
Procedure: The epithelial cell binding ability of compounds and mixtures obtained from synthetic combinatorial libraries was determined by competition assays. These assays were set up to measure the inhibition of binding of biotinylated UEA-1 to membrane preparations of the epithelial cell line Caco-2 (colon carcinoma cells-2), by compounds and mixtures of the combinatorial libraries. This cell line is a conventional model for epithelial cells.
Two competition inhibition assays were used in this case, namely single tier and two tier assays. These assays differed from each other in that in the single tier assay, the mixtures/compounds and the biotinylated UEA-1 were incubated together with the Caco-2 cell membrane preparations, while in case of the two-tier assay, the mixture/compounds were allowed to incubate alone with the cell membranes in the absence of biotinylated UEA-1, which was added in the next step. Addition of the extra step in the two-tier assay was to ensure that the compounds inhibiting the binding of biotinylated UEA-1 to the Caco-2 cell membranes were doing so by themselves binding to surface receptors on the Caco-2 cells and not to the biotinylated UEA-1. Each assay will be described in detail.
• 1. Confluent Caco-2 cell monolayers (grown in 75 cm^2 flasks for up to 1 week at 37° C. and 5% CO2) were washed twice in Dulbecco's PBS (DPBS). • 2. Cell monolayers were treated with 10 mM EDTA-DPBS for 5–10 min at 37° C. and cells were harvested by centrifugation at 1000 rpm for 5 min. • 3. Cells were washed 3 times in DPBS. • 4. […] The cells were homogenised for 30 sec. • 6. The homogenates were centrifuged in hard walled tubes at 40,000 rpm for 45 min at 4° C. • 7. […] The supernatant was removed and stored on ice. The procedure was repeated adding the second supernatant to the first. • 8. The protein concentration was determined using e.g. a Bio-Rad protein assay. • 9. All fractions were stored at −80° C. prior to use. Single Tier Assays: • 1. 96-well microtiter plates were coated with membrane preparations of Caco-2 cells either by allowing them to incubate on the plates for 2½ hours at room temperature or by incubating them overnight at 4° C. 100 μl of 10 μg/ml (in 0.05 M carbonate buffer, pH 9.6) of membrane preparation was added to each well. • 2. The plates were flicked out, patted dry and blocked with bovine serum albumin (BSA)/DPBS (200 μl/well) for 1 to 4 hours at room temperature after which they were washed three times in water. • 3. […] Control wells were also set up in which the Caco-2 cell membrane preparations were incubated with unconjugated UEA-1. […] Following overnight incubation the plates were washed thoroughly (3–6 times). The plates were flicked out, patted dry and biotinylated UEA-1 was detected with commercial Streptavidin conjugated to horseradish peroxidase (HRP) (CalBiochem). […] The plates were left to incubate for an hour at room temperature. • 6. The plates were then washed 3–6 times and the biotin-streptavidin binding was detected by adding an HRP substrate OPD (orthophenyl diamine) to each well. 100 μl/well of this substrate at a final concentration of 1.6 mg/ml was added to each well. Before adding to the wells, this substrate was activated by addition of 50 μl of 3% H2O2 per plate and the reaction was allowed to develop in the dark. • 7. The reaction was stopped by adding 50 μl of 4 N H2SO4 to each well after approximately 5–10 minutes or when sufficient colour had developed. The OD490 (absorbance at 490 nm) of each well was measured using a conventional 96 well plate reading spectrophotometer. Two Tier Assays: • 1. 96 well plates were coated with Caco-2 cell membrane preparations in the same manner as described in the single tier assay. • 2. […] 100 μl at these final concentrations were added to each well. • 4. The plates were then left to incubate overnight, a step that would allow the mixtures and compounds to interact with the Caco-2 cell membranes without the presence of the competitor (biotinylated UEA-1) itself. • 5. […]

[2] = system: UEA-1 binding sites on Caco-2 cell membrane preparations; assay: Single tier competition assay: inhibition of biotinylated UEA-1 binding, compound and biotinylated UEA-1 incubated together; details: library MSI 27; for IC50: read-out: Single Tier Assay IC50
In short: (§1)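 Plates coated with Caco-2 membrane preparation (10 μg/ml, carbonate buffer pH 9.6) and BSA-blocked. Single tier: compound and biotinylated UEA-1 incubated together overnight. Two tier: compound incubated overnight with membranes first, biotinylated UEA-1 added next. Bound UEA-1 detected by streptavidin-HRP/OPD, OD490.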

[3] = system: UEA-1 binding sites on Caco-2 cell membrane preparations; assay: Two tier competition assay: compound incubated alone with membranes, biotinylated UEA-1 added in next step; details: library MSI 27; for IC50: read-out: Two Tier Assay IC50
In short: as §1

[4] = 50 μg/ml, first pair of columns
[5] = 50 μg/ml, second pair of columns
[6] = 250 μg/ml, first pair of columns
[7] = 250 μg/ml, second pair of columns

Row | Single Tier Assay IC50 [2] | IC50 [2] | IC50 [3] | SMILES | Av % Inhibition [1, 4] | Av % Inhibition [1, 5] | Av % Inhibition [1, 6] | Av % Inhibition [1, 7] | Two Tier Assay IC50 [3]
1 | 168.10 µg/mL | 333 µM | 259 µM | CCOC(=O)c1c(OC)cc(C(=O)O)cc1OC [compound 5, 4-ethoxycarbonyl-3,5-dimethoxybenzoic acid] | 16% | 39% | 54% | 51% | 130.70 µg/mL
2 | 125.00 µg/mL | 299 µM | 412 µM | O=C(O)c1cc(O)cc(O)c1 [compound 8, 3,5-dihydroxybenzoic acid] | 59% | 0% | 85% | 50% | 171.90 µg/mL
3 | – | 284 µM | 284 µM | O=C(O)c1ccc(O)cc1 [compound 23, 4-Hydroxybenzoic acid] | 52% | 39% | 21% | 59% | –
4 | – | 307 µM | 307 µM | COc1cc(C(=O)O)cc(OC)c1O [compound 25, Syringic acid] | −173% | 65% | 66% | 63% | –

Row | SMILES | Single Tier Assay IC50 [2] | IC50 [2] | IC50 [3] | Av % Inhibition [1, 4] | Av % Inhibition [1, 5] | Av % Inhibition [1, 6] | Av % Inhibition [1, 7] | Two Tier Assay IC50 [3]
5 | COc1ccc(C(=O)O)cc1OC [compound 10, 3,4-Dimethoxybenzoic acid] | – | 711 µM | 356 µM | −65% | 24% | 41% | 66% | 125.00 µg/mL
6 | COc1cc(C(=O)O)cc(OC)c1OC [compound 20, 3,4,5-trimethoxybenzoic acid] | – | 212 µM | 212 µM | −121% | 52% | 24% | 75% | –
7 | COc1ccc(C(=O)O)cc1OC [compound 26, 3,4-Dimethoxybenzoic acid] | 125.00 µg/mL | 163 µM | 112 µM | −116% | 39% | −2% | 56% | 85.62 µg/mL
